Data taken from ChEMBL document CHEMBL1144272, “Generation of a new class of hNK(2) receptor ligands using the 'fragment approach'” (Bioorg Med Chem Lett, 2005).

Biological target: T1, Substance-K receptor (Homo sapiens, UniProt P21452)
T1 sequence (P21452 whole entry): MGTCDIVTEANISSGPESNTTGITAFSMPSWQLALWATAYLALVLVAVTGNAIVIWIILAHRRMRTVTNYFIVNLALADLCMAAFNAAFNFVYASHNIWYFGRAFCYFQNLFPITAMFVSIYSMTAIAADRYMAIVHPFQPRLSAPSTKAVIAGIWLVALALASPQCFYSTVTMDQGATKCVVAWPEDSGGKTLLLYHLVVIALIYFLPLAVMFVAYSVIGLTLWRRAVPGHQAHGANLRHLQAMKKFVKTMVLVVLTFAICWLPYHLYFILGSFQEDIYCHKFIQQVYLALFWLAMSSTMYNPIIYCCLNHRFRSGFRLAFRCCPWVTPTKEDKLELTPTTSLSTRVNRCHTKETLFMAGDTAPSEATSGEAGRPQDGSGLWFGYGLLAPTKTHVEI
Assay: Binding affinity for human tachykinin receptor 2 was measured by using [125I]NKA as radio ligand

| SMILES | Ki [nM] |
| --- | --- |
| O=C(Nc1ccc(Oc2cccc(F)c2)cc1)N[C@H](Cc1ccccc1)C(=O)NCCCN1CCOCC1 | > 1000 |
| O=C(Nc1ccc(Oc2ccc(F)cc2)cc1)N[C@H](Cc1ccccc1)C(=O)NCCCN1CCOCC1 | > 310 |
| CC(C)(Oc1ccccc1-c1ccccc1)C(=O)N[C@H](Cc1ccccc1)C(=O)NCCCN1CCOCC1 | 5000 |
| O=C(N[C@H](Cc1ccccc1)C(=O)NCCCN1CCOCC1)c1cccc(-c2ccccc2)c1 | > 10000 |
| CN(C(=O)N[C@H](Cc1ccccc1)C(=O)NCCCN1CCOCC1)c1cccc(Oc2ccccc2)c1 | > 3000 |
| CC(C)c1ccc(OC(C)(C)C(=O)N[C@@H](Cc2ccccc2)C(=O)NCCCN2CCOCC2)cc1 | > 1000 |
| COc1ccc(Oc2ccc(NC(=O)N[C@H](Cc3ccccc3)C(=O)NCCCN3CCOCC3)cc2)cc1 | > 1000 |
| CN(Cc1ccccc1)C(=O)N[C@H](Cc1ccccc1)C(=O)NCCCN1CCOCC1 | 3000 |
| O=C(Nc1ccccc1)N[C@@H](Cc1ccccc1)C(=O)NCCCN1CCOCC1 | > 10000 |
| CN(C(=O)N[C@@H](Cc1ccccc1)C(=O)NCCCN1CCOCC1)c1ccc(Oc2ccccc2)cc1 | > 3000 |
| CN(Cc1ccccc1)C(=O)N[C@@H](Cc1ccccc1)C(=O)NCCCN1CCOCC1 | 2000 |
| O=C(Nc1ccc(Oc2ccc(C(F)(F)F)cc2)cc1)N[C@H](Cc1ccccc1)C(=O)NCCCN1CCOCC1 | > 1000 |
| O=C(Nc1ccccc1Oc1ccccc1)N[C@@H](Cc1ccccc1)C(=O)NCCCN1CCOCC1 | 5000 |
| CC(C)(Oc1cccc(-c2ccccc2)c1)C(=O)N[C@@H](Cc1ccccc1)C(=O)NCCCN1CCOCC1 | 6300 |
| O=C(N[C@@H](Cc1ccccc1)C(=O)NCCCN1CCOCC1)c1ccccc1-c1ccccc1 | > 10000 |
| O=C(NCCCN1CCOCC1)[C@@H](Cc1ccccc1)NC(=O)N(c1ccccc1)c1ccccc1 | > 3000 |
| O=C(Nc1ccccc1)N[C@H](Cc1ccccc1)C(=O)NCCCN1CCOCC1 | > 10000 |
| O=C(Nc1ccc(Oc2ccc(OC(F)(F)F)cc2)cc1)N[C@@H](Cc1ccccc1)C(=O)NCCCN1CCOCC1 | > 100 |
| CC(C)(Oc1ccc(C(F)(F)F)cc1)C(=O)N[C@H](Cc1ccccc1)C(=O)NCCCN1CCOCC1 | > 1000 |
| O=C(Nc1ccc(OCc2ccccc2)cc1)N[C@@H](Cc1ccccc1)C(=O)NCCCN1CCOCC1 (stereo in doubt; 31a (L)) | > 1000 |
| O=C(N[C@H](Cc1ccccc1)C(=O)NCCCN1CCOCC1)C(c1ccccc1)c1ccccc1 | > 10000 |
| O=C(Nc1ccc(Sc2ccc(F)cc2)cc1)N[C@H](Cc1ccccc1)C(=O)NCCCN1CCOCC1 | > 200 |
| CC(C)(Oc1ccc(C(F)(F)F)cc1)C(=O)N[C@@H](Cc1ccccc1)C(=O)NCCCN1CCOCC1 | > 1000 |
| CC(C)(Nc1ccccc1Oc1ccccc1)C(=O)N[C@@H](Cc1ccccc1)C(=O)NCCCN1CCOCC1 | > 3000 |
| O=C(NCCCN1CCOCC1)[C@H](Cc1ccccc1)NC(=O)N(c1ccccc1)c1ccccc1 | > 3000 |
| O=C(NCCCN1CCOCC1)[C@H](Cc1ccccc1)NC(=O)N1CCCC(O)(c2ccccc2)C1 (stereo partly specified) | 6300 |

| SMILES | Ki [nM] |
| --- | --- |
| O=C(NCCCN1CCOCC1)[C@H](Cc1ccccc1)NC(=O)N1CCN(c2ccccc2)CC1 | > 3000 |
| CN(C(=O)N[C@H](Cc1ccccc1)C(=O)NCCCN1CCOCC1)c1cccc(Oc2cccc(F)c2)c1 | > 1000 |
| O=C(N[C@@H](Cc1ccccc1)C(=O)NCCCN1CCOCC1)c1cccc(-c2ccccc2)c1 | 2000 |
| O=C(Nc1ccc(OCc2cc(F)cc(F)c2)cc1)N[C@H](Cc1ccccc1)C(=O)NCCCN1CCOCC1 | > 1000 |
| CC(C)(Oc1ccc(-c2ccccc2)cc1)C(=O)N[C@H](Cc1ccccc1)C(=O)NCCCN1CCOCC1 | 7900 |
| O=C(Nc1ccc(Oc2ccc(OC(F)(F)F)cc2)cc1)N[C@H](Cc1ccccc1)C(=O)NCCCN1CCOCC1 | > 1000 |
| CC(C)(Oc1cccc(-c2ccccc2)c1)C(=O)N[C@H](Cc1ccccc1)C(=O)NCCCN1CCOCC1 | 10000 |
| CC(C)(Oc1cccc(Cl)c1)C(=O)N[C@@H](Cc1ccccc1)C(=O)NCCCN1CCOCC1 | > 1000 |
| CC(C)(Oc1ccc(F)cc1)C(=O)N[C@H](Cc1ccccc1)C(=O)NCCCN1CCOCC1 | > 1000 |
| CN(C(=O)N[C@@H](Cc1ccccc1)C(=O)NCCCN1CCOCC1)c1cccc(Oc2ccccc2)c1 | > 3000 |
| O=C(Nc1ccccc1Oc1ccccc1)N[C@H](Cc1ccccc1)C(=O)NCCCN1CCOCC1 | > 10000 |
| O=C(N[C@@H](Cc1ccccc1)C(=O)NCCCN1CCOCC1)c1ccccc1 | > 10000 |
| CC(C)c1cccc(OC(C)(C)C(=O)N[C@@H](Cc2ccccc2)C(=O)NCCCN2CCOCC2)c1 | > 1000 |
| CC(C)(Oc1ccc(-c2ccccc2)cc1)C(=O)N[C@@H](Cc1ccccc1)C(=O)NCCCN1CCOCC1 | 7900 |
| O=C(N[C@H](Cc1ccccc1)C(=O)NCCCN1CCOCC1)c1ccccc1 | > 10000 |
| O=C(Nc1ccc(OCc2ccc(C(F)(F)F)cc2)cc1)N[C@H](Cc1ccccc1)C(=O)NCCCN1CCOCC1 | 5000 |
| O=C(NCCCN1CCOCC1)[C@@H](Cc1ccccc1)NC(=O)N1CCC(Cc2ccccc2)CC1 | 2000 |
| O=C(NCCCN1CCOCC1)[C@@H](Cc1ccccc1)NC(=O)N1CCN(c2ccccc2)CC1 | > 3000 |
| Cc1ccc(COc2ccc(NC(=O)N[C@H](Cc3ccccc3)C(=O)NCCCN3CCOCC3)cc2)cc1 | > 1000 |
| CN(C(=O)N[C@@H](Cc1ccccc1)C(=O)NCCCN1CCOCC1)c1cccc(Oc2cccc(F)c2)c1 | > 1000 |
| CN(C(=O)N[C@H](Cc1ccccc1)C(=O)NCCCN1CCOCC1)c1ccc(Oc2ccccc2)cc1 | > 3000 |
| CC(C)(Nc1ccccc1)C(=O)N[C@H](Cc1ccccc1)C(=O)NCCCN1CCOCC1 | > 3000 |
| CC(C)(Nc1ccccc1)C(=O)N[C@@H](Cc1ccccc1)C(=O)NCCCN1CCOCC1 | > 3000 |
| CC(C)(Oc1ccc(F)cc1)C(=O)N[C@@H](Cc1ccccc1)C(=O)NCCCN1CCOCC1 | > 1000 |
| CC(C)c1ccc(OC(C)(C)C(=O)N[C@H](Cc2ccccc2)C(=O)NCCCN2CCOCC2)cc1 | > 1000 |
| CC(C)(Oc1ccccc1-c1ccccc1)C(=O)N[C@@H](Cc1ccccc1)C(=O)NCCCN1CCOCC1 | 3100 |

The remaining lines, values ahead:

| Ki [nM] | SMILES |
| --- | --- |
| 790 | Cc1ccc(COc2ccc(NC(=O)N[C@@H](Cc3ccccc3)C(=O)NCCCN3CCOCC3)cc2)cc1 |
| 310 | COc1ccc(Oc2ccc(NC(=O)N[C@@H](Cc3ccccc3)C(=O)NCCCN3CCOCC3)cc2)cc1 |
| 310 | CC(C)(Oc1cccc(Cl)c1)C(=O)N[C@H](Cc1ccccc1)C(=O)NCCCN1CCOCC1 |
| 16 | O=C(Nc1ccc(Oc2ccc(F)cc2)cc1)N[C@@H](Cc1ccccc1)C(=O)NCCCN1CCOCC1 |
| 500 | O=C(Nc1ccc(Oc2ccccc2)cc1)N[C@H](Cc1ccccc1)C(=O)NCCCN1CCOCC1 |
| 2000 | O=C(N[C@@H](Cc1ccccc1)C(=O)NCCCN1CCOCC1)C(c1ccccc1)c1ccccc1 |
| 790 | O=C(Nc1ccc(OCc2ccc(C(F)(F)F)cc2)cc1)N[C@@H](Cc1ccccc1)C(=O)NCCCN1CCOCC1 |
| 630 | O=C(Nc1ccc(OCc2ccccc2)cc1)N[C@H](Cc1ccccc1)C(=O)NCCCN1CCOCC1 (stereo in doubt; 32b (D)) |
| 63 | CC(C)c1ccc(Oc2ccc(NC(=O)N[C@@H](Cc3ccccc3)C(=O)NCCCN3CCOCC3)cc2)cc1 |
| 600 | CC(C)(Oc1ccc(Cl)cc1)C(=O)N[C@H](Cc1ccccc1)C(=O)NCCCN1CCOCC1 |
| 200 | O=C(Nc1ccc(Oc2cccc(F)c2)cc1)N[C@@H](Cc1ccccc1)C(=O)NCCCN1CCOCC1 |
| 1200 | O=C(Nc1ccc(OCc2ccccc2)cc1)N[C@@H](Cc1ccccc1)C(=O)NCCCN1CCOCC1 (stereo in doubt; 32a (L)) |
| 1600 | O=C(NCCCN1CCOCC1)[C@H](Cc1ccccc1)NC(=O)N1CCC(Cc2ccccc2)CC1 |
| 1600 | CC(C)(Oc1ccc(Cl)cc1)C(=O)N[C@@H](Cc1ccccc1)C(=O)NCCCN1CCOCC1 |
| 120 | CC(C)(C)c1ccc(Oc2ccc(NC(=O)N[C@H](Cc3ccccc3)C(=O)NCCCN3CCOCC3)cc2)cc1 |
| 630 | CCc1ccc(Oc2ccc(NC(=O)N[C@H](Cc3ccccc3)C(=O)NCCCN3CCOCC3)cc2)cc1 |
| 500 | O=C(Nc1ccc(OCc2cc(F)cc(F)c2)cc1)N[C@@H](Cc1ccccc1)C(=O)NCCCN1CCOCC1 |
| 630 | O=C(Nc1ccc(OCc2cccc(Cl)c2)cc1)N[C@H](Cc1ccccc1)C(=O)NCCCN1CCOCC1 |
| 100 | O=C(Nc1ccc(OCc2ccccc2)cc1)N[C@H](Cc1ccccc1)C(=O)NCCCN1CCOCC1 (stereo in doubt; 31b (D)) |
| 200 | COc1cc(COc2ccc(NC(=O)N[C@@H](Cc3ccccc3)C(=O)NCCCN3CCOCC3)cc2)cc(OC)c1 |
| 200 | CCc1ccc(Oc2ccc(NC(=O)N[C@@H](Cc3ccccc3)C(=O)NCCCN3CCOCC3)cc2)cc1 |
| 200 | O=C(Nc1cccc(Oc2ccccc2)c1)N[C@@H](Cc1ccccc1)C(=O)NCCCN1CCOCC1 |
| 250 | O=C(Nc1ccc(Oc2ccc(C(F)(F)F)cc2)cc1)N[C@@H](Cc1ccccc1)C(=O)NCCCN1CCOCC1 |
| 300 | O=C(Nc1cccc(Oc2ccccc2)c1)N[C@H](Cc1ccccc1)C(=O)NCCCN1CCOCC1 |
| 50 | CC(C)(C)c1ccc(Oc2ccc(NC(=O)N[C@@H](Cc3ccccc3)C(=O)NCCCN3CCOCC3)cc2)cc1 |
| 130 | O=C(Nc1ccc(Sc2ccc(F)cc2)cc1)N[C@@H](Cc1ccccc1)C(=O)NCCCN1CCOCC1 |
| 200 | CC(C)c1ccc(Oc2ccc(NC(=O)N[C@H](Cc3ccccc3)C(=O)NCCCN3CCOCC3)cc2)cc1 |
| 320 | O=C(Nc1ccc(OCc2cccc(Cl)c2)cc1)N[C@@H](Cc1ccccc1)C(=O)NCCCN1CCOCC1 |
| 1000 | O=C(Nc1ccc(Oc2ccccc2)cc1)N[C@@H](Cc1ccccc1)C(=O)NCCCN1CCOCC1 |
